Measurements taken from the NIST ThermoML archive (doi:10.1016/j.fluid.2015.07.004).
Numbers after ± are expanded uncertainties.

Tests used:
[1] = mn = molality of the nth substance listed, in mol/kg; settings: 298 K, 100 kPa, Liquid, Vibrating tube method
[2] = osmotic coefficient (dimensionless); mn = molality of the nth substance listed, in mol/kg; settings: 100 kPa, Liquid, boiling point elevation

For `CN(C)CC(=O)O` [(Dimethylamino)acetic acid] + O, the mass density ([1]; m1 = 0.4001) was 1005.64 ± 1.1 kg/m3, the mass density ([1]; m1 = 1.003) was 1016.88 ± 1.2 kg/m3 and the mass density ([1]; m1 = 1.401) was 1024.01 ± 1.2 kg/m3. It also gave a mass density ([1]; m1 = 1.992) of 1033.69 ± 1.2 kg/m3, an osmotic coefficient ([2]; 310.15 K, m1 = 0.0986) of 1.069 ± 0.0087 and an osmotic coefficient ([2]; 310.15 K, m1 = 0.2005) of 1.035 ± 0.0088. For the same compound, the osmotic coefficient ([2]; 310.15 K, m1 = 0.4001) was 1.072 ± 0.0088, the osmotic coefficient ([2]; 310.15 K, m1 = 0.8024) was 1.076 ± 0.0094 and the osmotic coefficient ([2]; 310.15 K, m1 = 1.003) was 1.126 ± 0.01. It also gave an osmotic coefficient ([2]; 310.15 K, m1 = 1.193) of 1.141 ± 0.011, an osmotic coefficient ([2]; 310.15 K, m1 = 1.401) of 1.147 ± 0.0097 and an osmotic coefficient ([2]; 310.15 K, m1 = 1.585) of 1.154 ± 0.0098. It also gave an osmotic coefficient ([2]; 310.15 K, m1 = 1.797) of 1.169 ± 0.01, an osmotic coefficient ([2]; 310.15 K, m1 = 1.992) of 1.206 ± 0.011 and an osmotic coefficient ([2]; 323.15 K, m1 = 0.2056) of 0.981 ± 0.0084. The osmotic coefficient ([2]; 323.15 K, m1 = 0.2889) was 0.989 ± 0.0084, the osmotic coefficient ([2]; 323.15 K, m1 = 0.4998) was 1.008 ± 0.0087 and the osmotic coefficient ([2]; 323.15 K, m1 = 1.015) was 1.021 ± 0.0088. For the same compound, the osmotic coefficient ([2]; 323.15 K, m1 = 1.5) was 1.114 ± 0.009.
For `NC(=O)NCCC[C@H](N)C(=O)O` [N5-aminocarbonyl-L-ornithine] + O, the mass density ([1]; m1 = 0.1989) was 1008.22 ± 1.1 kg/m3, the mass density ([1]; m1 = 0.3842) was 1018.59 ± 1.2 kg/m3 and the mass density ([1]; m1 = 0.6007) was 1029 ± 1.2 kg/m3. For the same compound, the osmotic coefficient ([2]; 310.15 K, m1 = 0.1011) was 1.011 ± 0.008, the osmotic coefficient ([2]; 310.15 K, m1 = 0.1989) was 1.003 ± 0.008 and the osmotic coefficient ([2]; 310.15 K, m1 = 0.3942) was 0.9986 ± 0.008. The osmotic coefficient ([2]; 310.15 K, m1 = 0.4915) was 0.9973 ± 0.008, the osmotic coefficient ([2]; 310.15 K, m1 = 0.6892) was 1.002 ± 0.008 and the osmotic coefficient ([2]; 323.15 K, m1 = 0.2016) was 1.007 ± 0.008. The osmotic coefficient ([2]; 323.15 K, m1 = 0.402) was 1.001 ± 0.008 and the osmotic coefficient ([2]; 323.15 K, m1 = 0.6001) was 0.9931 ± 0.008.
With `C[N+](C)(C)[O-]` [trimethylamine oxide] + O the mass density ([1]; m1 = 0.406) was 998.235 ± 1.1 kg/m3, the mass density ([1]; m1 = 0.7971) was 999.133 ± 1.1 kg/m3 and the mass density ([1]; m1 = 1.199) was 1000.21 ± 1.1 kg/m3. It also gave a mass density ([1]; m1 = 1.59) of 1001.54 ± 1.1 kg/m3, a mass density ([1]; m1 = 2.002) of 1002.01 ± 1.1 kg/m3 and a mass density ([1]; m1 = 2.445) of 1003.03 ± 1.1 kg/m3. For the same compound, the osmotic coefficient ([2]; 310.15 K, m1 = 0.1988) was 0.9879 ± 0.0081, the osmotic coefficient ([2]; 310.15 K, m1 = 0.406) was 1.034 ± 0.0082 and the osmotic coefficient ([2]; 310.15 K, m1 = 0.62) was 1.062 ± 0.0084. It also gave an osmotic coefficient ([2]; 310.15 K, m1 = 0.7971) of 1.152 ± 0.0097, an osmotic coefficient ([2]; 310.15 K, m1 = 0.9921) of 1.133 ± 0.0094 and an osmotic coefficient ([2]; 310.15 K, m1 = 1.199) of 1.15 ± 0.0098. For the same compound, the osmotic coefficient ([2]; 310.15 K, m1 = 1.392) was 1.192 ± 0.011, the osmotic coefficient ([2]; 310.15 K, m1 = 1.59) was 1.31 ± 0.014 and the osmotic coefficient ([2]; 323.15 K, m1 = 0.5008) was 1.076 ± 0.0085. The osmotic coefficient ([2]; 323.15 K, m1 = 1.015) was 1.171 ± 0.01 and the osmotic coefficient ([2]; 323.15 K, m1 = 1.5) was 1.27 ± 0.013.
Compound `OC[C@H]1O[C@H](O[C@H]2O[C@H](CO)[C@@H](O)[C@H](O)[C@H]2O)[C@H](O)[C@@H](O)[C@@H]1O` [α-trehalose] + O has a mass density ([1]; m1 = 0.1997) of 1022.61 ± 1.2 kg/m3, a mass density ([1]; m1 = 0.3989) of 1046.2 ± 1.2 kg/m3 and a mass density ([1]; m1 = 0.5995) of 1068.34 ± 1.2 kg/m3. It also gave a mass density ([1]; m1 = 0.7914) of 1087.59 ± 1.3 kg/m3, an osmotic coefficient ([2]; 310.15 K, m1 = 0.0499) of 1.031 ± 0.0081 and an osmotic coefficient ([2]; 310.15 K, m1 = 0.0998) of 1.036 ± 0.0081. For the same compound, the osmotic coefficient ([2]; 310.15 K, m1 = 0.1997) was 1.02 ± 0.008, the osmotic coefficient ([2]; 310.15 K, m1 = 0.2995) was 0.999 ± 0.008 and the osmotic coefficient ([2]; 310.15 K, m1 = 0.3989) was 1.01 ± 0.008. For the same compound, the osmotic coefficient ([2]; 310.15 K, m1 = 0.4992) was 1.022 ± 0.008, the osmotic coefficient ([2]; 310.15 K, m1 = 0.5995) was 0.9904 ± 0.008 and the osmotic coefficient ([2]; 310.15 K, m1 = 0.6932) was 1.019 ± 0.008. For the same compound, the osmotic coefficient ([2]; 310.15 K, m1 = 1.469) was 1.063 ± 0.0083 and the osmotic coefficient ([2]; 310.15 K, m1 = 1.982) was 1.08 ± 0.0085.
